Data on 5 cell lines can be found in the supplement of paper PMC10307832.

Common to all, as to assay: relative viability (nuclei count vs DMSO), 5 days (fraction); higher = more cells survive
Compound in the test “Mirin + AZD7762”: N=C1NC(=O)/C(=C/c2ccc(O)cc2)S1 [Mirin] + NC(=O)Nc1cc(-c2cccc(F)c2)sc1C(=O)N[C@H]1CCCNC1 [AZD7762] (partner 0.2 µM)
In outline: (§1)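 A single step with final 0.05% Triton X-100, 1% formaldehyde and 1 ug/ml Hoechst fixed the cells and stained nuclei 5 days after treatment. Lung cancer cell lines in 1536-well plates had been treated by pin tool the day after seeding with one drug alone or a fixed anchor-drug dose plus five library-drug doses (not always all listed) in √10 steps, and nuclei were counted on 4× images. Relative viability is the ratio of nuclei in treated wells to nuclei in vehicle wells, taken as the median of duplicate plates.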

Compound in the test “Mirin + Trametinib”: N=C1NC(=O)/C(=C/c2ccc(O)cc2)S1 [Mirin] + CC(=O)Nc1cccc(-n2c(=O)n(C3CC3)c(=O)c3c(Nc4ccc(I)cc4F)n(C)c(=O)c(C)c32)c1 [Trametinib] (partner 0.02 µM)
Summed up:
as §1

Compound in test [1]: CCC1=CN=CN=C1N2CCN(CC2)CC3=NC4=C(N3)C=C(C=C4)C(F)(F)F + CS(=O)(=O)N1CCN(Cc2cc3nc(-c4cccc5[nH]ncc45)nc(N4CCOCC4)c3s2)CC1 [Pictilisib] (partner 1 µM)
In outline: as §1

Compound in the test “Mirin + Palbociclib”: N=C1NC(=O)/C(=C/c2ccc(O)cc2)S1 [Mirin] + CC(=O)c1c(C)c2cnc(Nc3ccc(N4CCNCC4)cn3)nc2n(C2CCCC2)c1=O [Palbociclib] (partner 0.5 µM)
Summed up:
as §1

NCI-H2405: the relative viability was determined as 0.747 in the test with Mirin + AZD7762 (first compound 0.25 µM); 0.798 with Mirin + AZD7762 (first compound 2.5 µM); 0.734 with Mirin + AZD7762 (first compound 7.906 µM); 0.599 with Mirin + AZD7762 (first compound 25 µM); 0.615 in the test with Mirin + Trametinib (first compound 0.25 µM); 0.6 with Mirin + Trametinib (first compound 2.5 µM). In addition, the relative viability amounted to 0.594 in the test with Mirin + Trametinib (first compound 7.906 µM); 0.645 in the test with Mirin + Trametinib (first compound 25 µM); 0.486 in test [1] (first compound 0.04 µM); 0.379 in test [1] (first compound 0.1265 µM); 0.43 in test [1] (first compound 0.4 µM); 0.575 in test [1] (first compound 4 µM). Besides, the relative viability with Mirin + Palbociclib (first compound 0.25 µM) was 0.512; with Mirin + Palbociclib (first compound 2.5 µM) it was 0.526; with Mirin + Palbociclib (first compound 7.906 µM), 0.568; with Mirin + Palbociclib (first compound 25 µM), 0.511.

As to NCI-H3122, the relative viability with Mirin + AZD7762 (first compound 0.25 µM) came to 1.01; with Mirin + AZD7762 (first compound 0.7906 µM), 0.954; with Mirin + AZD7762 (first compound 2.5 µM) it was 0.927; with Mirin + AZD7762 (first compound 7.906 µM) it was 1.07; in the test with Mirin + AZD7762 (first compound 25 µM), 1.1; with Mirin + Trametinib (first compound 0.25 µM), 0.221. The relative viability came to 0.218 with Mirin + Trametinib (first compound 0.7906 µM); 0.25 in the test with Mirin + Trametinib (first compound 2.5 µM); 0.176 with Mirin + Trametinib (first compound 7.906 µM); 0.221 with Mirin + Trametinib (first compound 25 µM); 0.69 in test [1] (first compound 0.04 µM); 0.578 in test [1] (first compound 0.1265 µM). Further, the relative viability in test [1] (first compound 0.4 µM) amounted to 0.609; in test [1] (first compound 1.265 µM), 0.665; in test [1] (first compound 4 µM) it was 0.659; with Mirin + Palbociclib (first compound 0.25 µM), 0.192; with Mirin + Palbociclib (first compound 0.7906 µM), 0.197; in the test with Mirin + Palbociclib (first compound 2.5 µM), 0.199. Moreover, the relative viability with Mirin + Palbociclib (first compound 7.906 µM) came out at 0.166; with Mirin + Palbociclib (first compound 25 µM), 0.165.

Consider PC-3 [JPC-3], for which the relative viability with Mirin + AZD7762 (first compound 0.25 µM) is 0.88; with Mirin + AZD7762 (first compound 0.7906 µM), 0.782; in the test with Mirin + AZD7762 (first compound 2.5 µM), 0.896; in the test with Mirin + AZD7762 (first compound 7.906 µM) it was 0.843; with Mirin + AZD7762 (first compound 25 µM), 0.989; in the test with Mirin + Trametinib (first compound 0.25 µM), 0.669. The relative viability was found to be 0.72 with Mirin + Trametinib (first compound 0.7906 µM); 0.7 with Mirin + Trametinib (first compound 2.5 µM); 0.73 with Mirin + Trametinib (first compound 7.906 µM); 0.786 with Mirin + Trametinib (first compound 25 µM); 0.704 in test [1] (first compound 0.04 µM); 0.657 in test [1] (first compound 0.1265 µM). The relative viability in test [1] (first compound 0.4 µM) was 0.604; in test [1] (first compound 1.265 µM), 0.739; in test [1] (first compound 4 µM), 0.697; in the test with Mirin + Palbociclib (first compound 0.25 µM), 0.596; in the test with Mirin + Palbociclib (first compound 0.7906 µM) it was 0.574; with Mirin + Palbociclib (first compound 2.5 µM) it was 0.551. For the same cell line, the relative viability with Mirin + Palbociclib (first compound 7.906 µM) was 0.524; with Mirin + Palbociclib (first compound 25 µM) it was 0.631.

In the case of PC-14, the relative viability with Mirin + AZD7762 (first compound 0.25 µM) amounted to 0.389; with Mirin + AZD7762 (first compound 0.7906 µM), 0.481; with Mirin + AZD7762 (first compound 2.5 µM), 0.365; in the test with Mirin + AZD7762 (first compound 7.906 µM), 0.313; with Mirin + AZD7762 (first compound 25 µM), 0.429; with Mirin + Trametinib (first compound 0.25 µM) it was 0.788. In addition, the relative viability is 0.893 in the test with Mirin + Trametinib (first compound 0.7906 µM); 0.725 in the test with Mirin + Trametinib (first compound 2.5 µM); 0.725 with Mirin + Trametinib (first compound 7.906 µM); 0.776 with Mirin + Trametinib (first compound 25 µM); 0.845 in test [1] (first compound 0.04 µM); 0.621 in test [1] (first compound 0.1265 µM). Moreover, the relative viability in test [1] (first compound 0.4 µM) turned out to be 0.671; in test [1] (first compound 1.265 µM), 0.573; in test [1] (first compound 4 µM), 0.6; in the test with Mirin + Palbociclib (first compound 0.25 µM) it was 0.528; in the test with Mirin + Palbociclib (first compound 0.7906 µM), 0.558; with Mirin + Palbociclib (first compound 2.5 µM) it was 0.508. Moreover, the relative viability amounted to 0.512 with Mirin + Palbociclib (first compound 7.906 µM) and 0.522 with Mirin + Palbociclib (first compound 25 µM).

Turning to RERF-LC-KJ, the relative viability with Mirin + AZD7762 (first compound 0.25 µM) stood at 1.17; with Mirin + AZD7762 (first compound 0.7906 µM), 0.878; in the test with Mirin + AZD7762 (first compound 2.5 µM), 0.953; in the test with Mirin + AZD7762 (first compound 7.906 µM) it was 0.814; with Mirin + AZD7762 (first compound 25 µM) it was 1.08; in the test with Mirin + Trametinib (first compound 0.25 µM), 0.897. Also, the relative viability with Mirin + Trametinib (first compound 0.7906 µM) stood at 0.975; in the test with Mirin + Trametinib (first compound 2.5 µM), 0.782; in the test with Mirin + Trametinib (first compound 7.906 µM), 0.842; in the test with Mirin + Trametinib (first compound 25 µM), 0.816; in test [1] (first compound 0.04 µM), 0.558; in test [1] (first compound 0.1265 µM), 0.498. The relative viability is 0.487 in test [1] (first compound 0.4 µM); 0.444 in test [1] (first compound 1.265 µM); 0.505 in test [1] (first compound 4 µM); 1.14 in the test with Mirin + Palbociclib (first compound 0.25 µM); 1.09 with Mirin + Palbociclib (first compound 0.7906 µM); 1.2 in the test with Mirin + Palbociclib (first compound 2.5 µM). The relative viability came to 1.2 in the test with Mirin + Palbociclib (first compound 7.906 µM) and 1.1 with Mirin + Palbociclib (first compound 25 µM).
